Values joined by “and” are separate entries in the source; they are usually repeats but may differ in a detail not shown here. Identical values can stand only once. “Also recorded” adds a separate entry of the source. Like-named read-outs stand apart in the source and are kept apart here. Where a SMILES comes first, the peptide text is derived from it.
What was measured:
[1] = system: BK channels; details: cited from earlier work; for time dependence of block of BK currents: internal
[2] = target: wild-type BK channel (mslo, mbr5) (Mus musculus, UniProt Q08460); assay: Macroscopic block of wild-type BK currents, inside-out patch clamp; format: cell-based; details: for time constant of block, τ (single exponential fit): macroscopic
Chain of wild-type BK channel (mslo, mbr5) (Q08460 66-1209 limits assumed): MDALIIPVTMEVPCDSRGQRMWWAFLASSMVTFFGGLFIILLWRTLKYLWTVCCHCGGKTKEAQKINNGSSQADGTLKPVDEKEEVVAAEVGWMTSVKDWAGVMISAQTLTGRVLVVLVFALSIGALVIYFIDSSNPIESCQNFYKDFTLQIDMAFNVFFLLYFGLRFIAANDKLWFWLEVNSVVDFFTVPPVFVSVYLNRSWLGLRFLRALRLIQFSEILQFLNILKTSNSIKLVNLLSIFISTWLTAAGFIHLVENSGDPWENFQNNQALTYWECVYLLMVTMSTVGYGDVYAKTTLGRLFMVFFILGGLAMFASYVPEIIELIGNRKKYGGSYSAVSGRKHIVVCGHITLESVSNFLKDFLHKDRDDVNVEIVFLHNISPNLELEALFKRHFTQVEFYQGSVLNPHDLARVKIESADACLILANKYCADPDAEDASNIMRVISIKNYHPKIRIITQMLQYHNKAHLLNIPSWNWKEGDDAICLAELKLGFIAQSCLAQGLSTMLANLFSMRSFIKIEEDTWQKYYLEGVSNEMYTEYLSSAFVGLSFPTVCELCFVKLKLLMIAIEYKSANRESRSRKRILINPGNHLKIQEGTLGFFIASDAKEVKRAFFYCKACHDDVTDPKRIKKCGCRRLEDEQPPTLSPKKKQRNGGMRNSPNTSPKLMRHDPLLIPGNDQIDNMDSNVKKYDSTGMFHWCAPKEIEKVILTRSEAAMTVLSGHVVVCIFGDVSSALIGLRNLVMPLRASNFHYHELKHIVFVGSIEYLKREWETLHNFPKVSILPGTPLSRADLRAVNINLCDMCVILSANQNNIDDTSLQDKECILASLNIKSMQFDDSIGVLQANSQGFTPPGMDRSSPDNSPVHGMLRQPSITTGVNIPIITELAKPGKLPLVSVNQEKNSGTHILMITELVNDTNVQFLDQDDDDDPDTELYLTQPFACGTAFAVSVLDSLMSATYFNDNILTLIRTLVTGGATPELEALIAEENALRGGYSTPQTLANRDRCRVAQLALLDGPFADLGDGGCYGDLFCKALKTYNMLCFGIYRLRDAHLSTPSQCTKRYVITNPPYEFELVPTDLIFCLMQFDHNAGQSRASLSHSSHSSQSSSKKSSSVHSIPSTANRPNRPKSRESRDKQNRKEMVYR

[3] = target: T1, E321N, E324N mutant BK channel (Mus musculus, UniProt Q08460, E386N/E389N); format: cell-based; details: for decrease of apparent affinity of block in E321N, E324N mutant vs wild type: macroscopic currents
T1 sequence (Q08460 66-1209 E386N/E389N limits assumed): as the sequence (Q08460 66-1209 limits assumed) above, with E321N, E324N counted along it

[4] = target: S6/2-KcsA BK channel construct (Mus musculus, UniProt Q08460, A378T/A381G/E386A/E389T/I387L/I388A/I391F/L377I/L390W/M379S/P385A/S382L/V384T/Y383V); format: cell-based
Chain of S6/2-KcsA BK channel construct (Mus musculus, UniProt Q08460, A378T/A381G/E386A/E389T/I387L/I388A/I391F/L377I/L390W/M379S/P385A/S382L/V384T/Y383V) (Q08460 28-1196 isoform Q08460-2 with the stated changes): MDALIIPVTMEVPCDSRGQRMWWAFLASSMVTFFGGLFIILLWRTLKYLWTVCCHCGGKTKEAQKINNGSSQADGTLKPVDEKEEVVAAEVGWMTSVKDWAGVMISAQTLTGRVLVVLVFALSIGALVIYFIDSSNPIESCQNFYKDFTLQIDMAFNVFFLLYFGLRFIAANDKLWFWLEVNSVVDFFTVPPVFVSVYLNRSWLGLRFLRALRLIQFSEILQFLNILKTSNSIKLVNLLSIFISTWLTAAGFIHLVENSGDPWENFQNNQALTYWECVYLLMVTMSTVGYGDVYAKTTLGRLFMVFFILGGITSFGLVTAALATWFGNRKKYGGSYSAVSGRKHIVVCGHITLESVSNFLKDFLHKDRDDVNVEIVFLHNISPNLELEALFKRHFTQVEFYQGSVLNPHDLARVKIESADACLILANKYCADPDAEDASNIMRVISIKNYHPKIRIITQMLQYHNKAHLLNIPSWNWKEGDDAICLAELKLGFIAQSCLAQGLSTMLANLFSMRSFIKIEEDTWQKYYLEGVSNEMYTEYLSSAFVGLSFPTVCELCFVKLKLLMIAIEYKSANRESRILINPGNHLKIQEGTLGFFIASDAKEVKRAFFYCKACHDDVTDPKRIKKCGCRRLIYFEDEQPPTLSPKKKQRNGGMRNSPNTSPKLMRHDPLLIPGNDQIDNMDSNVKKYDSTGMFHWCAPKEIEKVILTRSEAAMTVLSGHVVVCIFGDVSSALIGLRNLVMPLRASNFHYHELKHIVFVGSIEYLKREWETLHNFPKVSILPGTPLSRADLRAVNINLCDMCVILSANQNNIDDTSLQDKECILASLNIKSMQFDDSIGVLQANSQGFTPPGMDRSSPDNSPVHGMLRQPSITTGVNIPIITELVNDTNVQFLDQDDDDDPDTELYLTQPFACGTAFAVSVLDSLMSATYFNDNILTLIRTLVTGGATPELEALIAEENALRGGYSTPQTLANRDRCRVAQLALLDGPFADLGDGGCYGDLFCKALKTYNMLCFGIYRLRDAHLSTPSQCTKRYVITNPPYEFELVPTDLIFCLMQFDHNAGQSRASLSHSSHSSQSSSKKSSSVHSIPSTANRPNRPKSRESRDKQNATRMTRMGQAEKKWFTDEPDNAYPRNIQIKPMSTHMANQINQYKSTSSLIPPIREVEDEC

[5] = target: T2, wild-type BK channel (mslo) (Mus musculus, UniProt Q08460); assay: Single channel recordings, wild-type BK channel; format: cell-based; details: n = 5
T2 sequence (Q08460 66-1209 limits assumed): as the sequence (Q08460 66-1209 limits assumed) above

[6] = target: T1, E321N, E324N mutant BK channel; assay: Single channel recordings, E321N, E324N mutant; format: cell-based
[7] = system: S6/2-KcsA BK channel construct; format: cell-based, mouse
[8] = target: T2, wild-type BK channel (mslo); assay: Competition between TBA and EBP on macroscopic BK currents; format: cell-based
[9] = target: T2, wild-type BK channel (mslo); assay: Deactivation; format: cell-based
[10] = target: T2, wild-type BK channel (mslo); assay: State dependence of EBP block in High and Low Ca2+; format: cell-based; details: 3 μM EBP
[11] = system: BK channels; details: ref Toro et al., 1994, cited from earlier work
[12] = system: Shaker channels; details: ref Murrell-Lagnado and Aldrich, 1993b; cited from earlier work
[13] = 500 μM TBA on top of 3 μM EBP, compared with 3 μM EBP alone
[14] = EBP at around half block concentration, 120 mV

CCCC[N+](CCCC)(CCCC)Cc1ccc(C(=O)c2ccccc2)cc1 [bbTBA]
access of blocker to BK channels ([1]; ref Wilkens and Aldrich, 2006): may not be restricted by a cytoplasmic gate

CCCCCCCCCC[N+](CC)(CC)CC [C10, Decyltriethylammonium]
Hill coefficient n (C10) ([2]; wild type, 100 mV, six patches): 0.97 | affinity of C10 relative to that of TBA ([2]; wild-type BK channels): ~30 times | Hill coefficient n (C10) ([3]; E321N, E324N mutant, 100 mV, eight patches): 1.01 | decrease of apparent affinity of block in E321N, E324N mutant vs wild type [3]: ~2.5 fold | affinity of C10 vs TBA, S6/2-KcsA [4]: lower affinity than TBA | decrease of apparent affinity of C10 in S6/2-KcsA vs wild type [4]: almost two orders of magnitude | block of macroscopic S6/2-KcsA currents by C10 ([4]; 1 mM C10): about half the macroscopic currents | Hill coefficient n (C10) ([4]; S6/2-KcsA, 100 mV, five patches): 0.95 | association rate ([5]; 15 μM C10, mean ± SD): 9.0 ± 1.6 ms^−1 | dissociation rate of block (mean shut dwell time) ([5]; 120 mV, mean ± SD): 6.4 ± 0.5 ms^−1 | association rate ([6]; E321N, E324N mutant, 40 μM C10, mean ± SD, n = 5): 12.5 ± 1.1 ms^−1 | dissociation rate of block (mean shut dwell time) ([6]; E321N, E324N mutant, 120 mV, mean ± SD, n = 5): 7.8 ± 0.6 ms^−1 | block events in single S6/2-KcsA channels ([7]; 1 mM C10): too fast to resolve | time dependence of block of BK currents ([1]; ref Li and Aldrich, 2004): without apparent time dependence

CCCC[N+](CCCC)(CCCC)CCCC [TBA, Tetrabutylammonium]
Hill coefficient n (TBA) ([2]; wild type, 120 mV, five patches): 0.87 | block of mutant currents by TBA ([3]; 20 mM TBA, E321N, E324N mutant): ~100% | Hill coefficient n (TBA) ([3]; E321N, E324N mutant, 120 mV, nine patches): 0.89 | decrease of apparent affinity of block in E321N, E324N mutant vs wild type [3]: ~2.5 fold | affinity of TBA in S6/2-KcsA vs wild-type BK [4]: almost exactly the same affinity | block of macroscopic S6/2-KcsA currents by TBA ([4]; 100 μM TBA, 120 mV): ~20% | block of mutant currents by TBA ([4]; 20 mM TBA, S6/2-KcsA): ~100% | Hill coefficient n (TBA) ([4]; S6/2-KcsA, 120 mV, five patches): 0.97 | sensitivity of S6/2-KcsA channels to TBA ([4]; voltage ramp −80 to 200 mV, 0.3 and 10 mM TBA): sensitive to millimolar concentrations of TBA | single channel block in mutant vs wild type ([6]; 1 mM TBA in E321N, E324N mutant vs 0.4 mM in wild type, 120 mV): qualitatively very similar | block of single S6/2-KcsA channels vs wild-type BK ([7]; 0.4 mM TBA): kinetically very similar | reduction of peak current by added TBA [8, 13]: about half | slowing of time-dependent EBP block by added TBA [8, 13]: about twofold | inhibition of BK current at steady state ([1]; 500 μM TBA, positive potentials, ref Li and Aldrich, 2004): ~50% | block of BK channels ([1]; internal TBA, "our previous study", ref Li and Aldrich, 2004): fast block of BK channels at submillimolar concentrations | time dependence of block of BK currents ([1]; ref Li and Aldrich, 2004): without apparent time dependence

CSCC[C@H](NC(C)=O)C(=O)N[C@@H](C)C(=O)N[C@@H](C)C(=O)N[C@H](C(=O)N[C@@H](C)C(=O)NCC(=O)N[C@@H](CC(C)C)C(=O)N[C@@H](Cc1ccc(O)cc1)C(=O)NCC(=O)N[C@@H](CC(C)C)C(=O)NCC(=O)N[C@@H](CCCCN)C(=O)N[C@@H](CCCCN)C(=O)N[C@@H](CCCNC(=N)N)C(=O)N[C@@H](CCC(N)=O)C(=O)N[C@@H](Cc1c[nH]cn1)C(=O)N[C@@H](CCCNC(=N)N)C(=O)N[C@@H](CCCCN)C(=O)N[C@@H](CCCCN)C(=O)N[C@@H](CCC(N)=O)C(N)=O)C(C)C [EBP] (Ac-MAAVAGLYGLGKKRQHRKKQ-NH2)
rising phase of BK currents (activation) vs control ([2]; 1 μM EBP, 120 mV): largely unchanged compared with control | time constant of block, τ (single exponential fit) ([2]; 1 μM EBP, 120 mV): 17.6 ms | fraction of remaining current (I/Io), voltage dependence ([2]; 1 μM EBP, end of 60-ms pulses, n = 6): decreases with increased membrane potentials | block of wild-type BK currents ([2]; 3 μM EBP): nearly complete block | single channel openings at steady-state block ([2]; 3 μM EBP): single channel openings to the full current level are clearly evident | time constant of block, τ (single exponential fit) ([2]; 3 μM EBP, 120 mV): 4.5 ms | time constant of block, τ (single exponential fit) ([2]; 10 μM EBP, 120 mV): 1.1 ms | 1/τ of block, concentration dependence ([2]; 1, 3 and 10 μM EBP, positive voltages (≥40 mV), n = 6): linearly dependent on the concentration of EBP | time constant of the single exponential decay ([2]; low concentration of EBP blocking roughly half of the channels (unpublished data)): ~100 ms | association rate constant (Kon), voltage dependence ([2]; slope of 1/τ vs EBP concentration): larger depolarizations resulting in higher association rate constants | Hill coefficient n (EBP) ([2]; wild type, 120 mV, 500 ms pulses, 5 patches): 1.16 | block of E321N, E324N currents by EBP ([3]; 100 μM EBP, 120 mV): < 60% | decrease of apparent affinity of EBP block in double mutant vs wild type ([3]; 120 mV, from fitted dose responses): more than two orders of magnitude | Hill coefficient n (EBP) ([3]; E321N, E324N mutant, 120 mV, 11 patches): 0.72 | time constant of dominating component of block [3, 14]: a few milliseconds | time constant of very small component of block [3, 14]: hundreds of milliseconds | block of S6/2-KcsA current by EBP ([4]; 100 μM EBP, 120 mV, mean ± SD, n = 5): 23.0 ± 0.5% and ~20% | apparent affinity of EBP for S6/2-KcsA vs E321N, E324N double mutant ([4]; 120 mV): about threefold lower | apparent affinity of EBP for S6/2-KcsA vs wild-type BK ([4]; 120 mV): more than three orders of magnitude lower | duration of block events, single E321N, E324N channel ([6]; 100 μM EBP, 80 mV): mainly short block events lasting a few milliseconds | block events in single S6/2-KcsA channels ([7]; 100 μM EBP, 120 mV): fails to result in resolvable block events | dissociation rate of EBP in S6/2-KcsA channels vs TBA ([7]; 100 μM each): even faster than that of TBA | deactivation of BK channels ([9]; 3 μM EBP, tail current compared with control): slowed compared with the control trace; also recorded: Deactivation of BK channels is slowed by EBP | normalized tail current time constant, τslow (double exponential fit) ([9]; 3 μM EBP, −160 mV after depolarization to 120 mV): 7.3 ms | normalized tail current time constant, τfast (double exponential fit) ([9]; 3 μM EBP, −160 mV after depolarization to 120 mV (control τ = 0.25 ms)): 0.37 ms | tail current time constant, slower component ([9]; EBP, negative potentials, relatively voltage insensitive): ~10 ms | tail current time constant, fast component ([9]; EBP, −60 mV): ~2 ms | tail current time constant, fast component ([9]; EBP, −160 mV): ~0.3 ms | off rate at negative potentials ([9]; from modeling tail currents with a C↔O↔B model): ~100 s⁻¹ | time constant of block, τ ([8]; 3 μM EBP alone): 2.8 ms | time constant of block, τ ([8]; 3 μM EBP plus 500 μM TBA): 5.6 ms | competition of TBA and EBP binding ([8]; 3 μM EBP, 500 μM TBA, positive potentials): mutually exclusive | fraction of preblock, Po ∼0 ([10]; High Ca^2+, lower end of range −80 to 80 mV): ~0 | relative amplitude of the test current, change with prepulse ([10]; Low Ca^2+, −80 to 80 mV, Po ∼0): doesn't change much | state dependence of block ([10]; High and Low Ca^2+ solutions): much more favored in an open configuration than a closed one; also recorded: peptide binding is much more favored in an opened BK channel | type of block events, single BK channels ([11]; near 0 mV): mostly short block events; also recorded: predominantly short block events | affinity for BK channels ([11]; single channel): higher affinity for BK channels than ShBP | affinity for Shaker channels vs native ShBP [12]: much higher affinity for Shaker channels | association rate for Shaker channels vs native ShBP [12]: significantly higher association rate for Shaker channels than native ShBP

Source: PMC2151574 (The Journal of General Physiology, 2006)
